From US20090291915A1, “Silicon Compounds and Their Use” (priority 2001, published 2009) come the findings set out here.

The structures appear in SMILES notation.

As usually defined, the melting point is the temperature, or range, at which the solid turns liquid. For `COc1nc(NCCCN2CCOCC2)nc(OC)c1NC(=O)c1ccc(Oc2cncc([Si](C)(C)C)c2)o1`, the melting point fell in the range of 80 to 82 °C.
